In ChEMBL document CHEMBL1129432, “Structure-activity relationships of a series of novel (piperazinylbutyl)thiazolidinone antipsychotic agents related to 3-[4-[4-(6-fluorobenzo[b]thien-3-yl)-1-piperazinyl]butyl]-2,5,5- trimethyl-4-thiazolidinone maleate” (J Med Chem, 1996):

Key:
[1] = target: T1, 5-hydroxytryptamine receptor 2A (Homo sapiens, UniProt P28223); assay: Binding affinity towards human 5-HT2A receptor in BEK cells; format: cell-based
Rattus norvegicus [2] = assay: Percentage change in chronic single unit sampling when compound given at a dose of 10 mg/kg ip in rats; format: functional; details: route intraperitoneal
D(4) dopamine receptor [3] = target: T2, D(4) dopamine receptor (Homo sapiens, UniProt P21917); assay: Binding affinity against human Dopamine receptor D4.2 in CHO cells; format: cell-based
T2 sequence (P21917 whole entry): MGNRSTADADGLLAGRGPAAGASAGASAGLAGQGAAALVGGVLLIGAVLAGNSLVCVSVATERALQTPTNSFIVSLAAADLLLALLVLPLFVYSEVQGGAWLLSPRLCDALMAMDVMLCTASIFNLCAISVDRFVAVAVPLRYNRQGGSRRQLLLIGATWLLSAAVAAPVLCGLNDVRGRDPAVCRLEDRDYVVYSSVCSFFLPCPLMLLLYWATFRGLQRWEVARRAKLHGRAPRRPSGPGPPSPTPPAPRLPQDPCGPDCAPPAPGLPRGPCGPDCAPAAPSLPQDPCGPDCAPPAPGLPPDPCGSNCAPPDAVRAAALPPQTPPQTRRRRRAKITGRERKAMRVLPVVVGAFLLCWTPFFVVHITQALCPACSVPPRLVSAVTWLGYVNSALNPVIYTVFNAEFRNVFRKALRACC

Rattus norvegicus [4] = assay: Percentage change in Total activity (anti psychotic) when compound administered at a doe of 2.5 mg/kg ip in rats; format: functional; details: route intraperitoneal
[5] = target: T1, 5-hydroxytryptamine receptor 2A; assay: Inhibitory concentration against human 5-HT2A receptor in BEK cells; format: cell-based
Rattus norvegicus [6] = assay: Percentage change in Social interaction when compound administered at a doe of 2.5 mg/kg ip in rats; format: functional; details: route intraperitoneal
D(4) dopamine receptor [7] = target: T2, D(4) dopamine receptor
Description: Inhibitory concentration against human Dopamine receptor D4.2 in CHO cells

[8] = target: T3, 5-hydroxytryptamine receptor 1A (Rattus norvegicus, UniProt P19327); assay: Binding affinity towards serotonin 5-HT1A receptor was determined in rat hippocampus using [3H]8-OH-DPAT as ligand; format: tissue-based
T3 sequence (P19327 whole entry): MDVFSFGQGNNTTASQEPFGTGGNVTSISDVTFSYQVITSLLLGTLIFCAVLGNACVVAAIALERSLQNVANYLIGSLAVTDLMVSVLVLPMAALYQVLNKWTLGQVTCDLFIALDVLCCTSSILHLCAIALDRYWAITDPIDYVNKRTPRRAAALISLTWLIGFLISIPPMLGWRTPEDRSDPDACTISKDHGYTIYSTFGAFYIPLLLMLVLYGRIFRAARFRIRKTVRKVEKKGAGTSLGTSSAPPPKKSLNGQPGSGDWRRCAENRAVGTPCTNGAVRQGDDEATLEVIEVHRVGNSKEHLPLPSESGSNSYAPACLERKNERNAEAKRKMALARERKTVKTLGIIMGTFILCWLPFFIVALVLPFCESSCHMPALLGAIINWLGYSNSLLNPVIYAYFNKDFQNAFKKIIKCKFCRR

Rattus norvegicus [9] = assay: Anti psychotic effect Social interaction when compound administered at a doe of 2.5 mg/kg ip in rats; format: functional; details: route intraperitoneal
Rattus norvegicus [10] = assay: Percentage change in Social interaction when compound administered at a doe of 1.25 mg/kg ip in rats; format: functional; details: route intraperitoneal
Rattus norvegicus [11] = assay: Total activity (anti psychotic) when compound administered at a doe of 2.5 mg/kg ip in rats; format: functional; details: route intraperitoneal
Rattus norvegicus [12] = assay: Percentage change in chronic single unit sampling when compound given at a dose of 20 mg/kg ip in rats; format: functional; details: route intraperitoneal
Rattus norvegicus [13] = assay: Percentage change in chronic single unit sampling when compound given at a dose of 10 mg/kg ip in rats(Expt-2); format: functional; details: route intraperitoneal
Rattus norvegicus [14] = assay: Total activity (anti psychotic) when compound administered at a doe of 1.25 mg/kg ip in rats; format: functional; details: route intraperitoneal
Rattus norvegicus [15] = assay: Percentage change in Total activity (anti psychotic) when compound administered at a doe of 1.25 mg/kg ip in rats; format: functional; details: route intraperitoneal
[16] = target: Serotonin 2 (5-HT2) receptor (Rattus norvegicus, UniProt P30994+P08909+P14842); assay: Binding affinity towards serotonin 5-HT2 receptor was determined in rat cortex using [3H]spiperone as ligand
Rattus norvegicus [17] = assay: Anti psychotic effect Social interaction when compound administered at a doe of 1.25 mg/kg ip in rats; format: functional; details: route intraperitoneal
Rattus norvegicus [18] = assay: Percentage change in chronic single unit sampling when compound given at a dose of 20 mg/kg ip in rats (Expt-2); format: functional; details: route intraperitoneal
Rattus norvegicus [19] = assay: Percentage change in Social interaction when compound administered at a doe of 10 mg/kg ip in rats; format: functional; details: route intraperitoneal
Rattus norvegicus [20] = assay: Percentage change in Total activity (anti psychotic) when compound administered at a doe of 5 mg/kg ip in rats; format: functional; details: route intraperitoneal
Rattus norvegicus [21] = assay: Total activity (anti psychotic) when compound administered at a doe of 5 mg/kg ip in rats; format: functional; details: route intraperitoneal
Rattus norvegicus [22] = assay: Anti psychotic effect Social interaction when compound administered at a doe of 10 mg/kg ip in rats; format: functional; details: route intraperitoneal
Rattus norvegicus [23] = assay: Total activity (anti psychotic) when compound administered at a doe of 10 mg/kg ip in rats; format: functional; details: route intraperitoneal
[24] = Compound at an intraperitoneal dose of 40 mg/Kg was tested for the inhibition of apomorphine-induced stereotypy in rat; format: functional; set-up: scale not given: the % may be the effect or the level left
Rattus norvegicus [25] = assay: Anti psychotic effect Social interaction when compound administered at a doe of 5 mg/kg ip in rats; format: functional; details: route intraperitoneal
Rattus norvegicus [26] = assay: Percentage change in Social interaction when compound administered at a doe of 5 mg/kg ip in rats; format: functional; details: route intraperitoneal
Rattus norvegicus [27] = assay: Percentage change in Total activity (anti psychotic) when compound administered at a doe of 10 mg/kg ip in rats; format: functional; details: route intraperitoneal
Rattus norvegicus [28] = assay: Compound at an intraperitoneal dose of 50 mg/Kg was tested for the inhibition of apomorphine-induced stereotypy in rat; format: functional; set-up: scale not given: the % may be the effect or the level left
Rattus norvegicus [29] = assay: Percentage change in chronic single unit sampling when compound given at a dose of 10 mg/kg ip (Expt-2); format: functional; details: route intraperitoneal
Rattus norvegicus [30] = assay: Compound at an intraperitoneal dose of 60 mg/Kg was tested for the inhibition of apomorphine-induced stereotypy in rat; format: functional; set-up: scale not given: the % may be the effect or the level left
D(2) dopamine receptor = D(2) dopamine receptor (Rattus norvegicus, UniProt P61169); assay: Binding affinity towards Dopamine receptor D2 was determined in rat striatum using [3H]- spiperone as radioligand; format: tissue-based
D(2) dopamine receptor, sequence (P61169 whole entry): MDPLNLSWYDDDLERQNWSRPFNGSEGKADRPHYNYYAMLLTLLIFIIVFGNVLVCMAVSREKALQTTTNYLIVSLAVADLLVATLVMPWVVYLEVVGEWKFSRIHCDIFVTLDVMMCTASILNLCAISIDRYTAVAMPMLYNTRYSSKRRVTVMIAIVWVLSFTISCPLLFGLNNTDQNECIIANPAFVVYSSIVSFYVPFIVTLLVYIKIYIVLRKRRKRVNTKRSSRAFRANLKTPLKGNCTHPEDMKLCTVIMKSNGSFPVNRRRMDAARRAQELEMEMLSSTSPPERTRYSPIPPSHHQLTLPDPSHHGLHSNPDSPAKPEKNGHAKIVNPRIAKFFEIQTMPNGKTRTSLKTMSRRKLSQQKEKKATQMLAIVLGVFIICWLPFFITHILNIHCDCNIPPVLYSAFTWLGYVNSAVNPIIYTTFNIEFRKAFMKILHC

Rattus norvegicus [31] = assay: Compound at an intraperitoneal dose of 20 mg/Kg was tested for the inhibition of apomorphine-induced stereotypy in rat; format: functional; set-up: scale not given: the % may be the effect or the level left
Rattus norvegicus [32] = assay: Compound at an intraperitoneal dose of 30 mg/Kg was tested for the inhibition of apomorphine-induced stereotypy in rat; format: functional; set-up: scale not given: the % may be the effect or the level left
Rattus norvegicus [33] = assay: Anti psychotic effect Social interaction when compound administered at a doe of 0.05 mg/kg ip in rats; format: functional; details: route intraperitoneal
Rattus norvegicus [34] = assay: Percentage change in Total activity (anti psychotic) when compound administered at a doe of 0.05 mg/kg ip in rats; format: functional; details: route intraperitoneal
Rattus norvegicus [35] = assay: Percentage change in Social interaction when compound administered at a doe of 0.05 mg/kg ip in rats; format: functional; details: route intraperitoneal
Rattus norvegicus [36] = assay: Percentage change in chronic single unit sampling when compound given at a dose of 0.5 mg/kg ip in rats; format: functional; details: route intraperitoneal
Rattus norvegicus [37] = assay: Total activity (anti psychotic) when compound administered at a doe of 0.125 mg/kg ip in rats; format: functional; details: route intraperitoneal
[38] = Intraperitoneal effective dose required for inhibition of apomorphine-induced stereotypy in rat; format: functional; details: ip
Rattus norvegicus [39] = assay: Percentage change in Total activity (anti psychotic) when compound administered at a doe of 0.125 mg/kg ip in rats; format: functional; details: route intraperitoneal
Rattus norvegicus [40] = assay: Anti psychotic effect Social interaction when compound administered at a doe of 0.125 mg/kg ip in rats; format: functional; details: route intraperitoneal
Rattus norvegicus [41] = assay: Percentage change in Social interaction when compound administered at a doe of 0.125 mg/kg ip in rats; format: functional; details: route intraperitoneal
Rattus norvegicus [42] = assay: Percentage change in chronic single unit sampling when compound given at a dose of 0.5 mg/kg ip in rats (Expt-2); format: functional; details: route intraperitoneal

T1 sequence (P28223 whole entry): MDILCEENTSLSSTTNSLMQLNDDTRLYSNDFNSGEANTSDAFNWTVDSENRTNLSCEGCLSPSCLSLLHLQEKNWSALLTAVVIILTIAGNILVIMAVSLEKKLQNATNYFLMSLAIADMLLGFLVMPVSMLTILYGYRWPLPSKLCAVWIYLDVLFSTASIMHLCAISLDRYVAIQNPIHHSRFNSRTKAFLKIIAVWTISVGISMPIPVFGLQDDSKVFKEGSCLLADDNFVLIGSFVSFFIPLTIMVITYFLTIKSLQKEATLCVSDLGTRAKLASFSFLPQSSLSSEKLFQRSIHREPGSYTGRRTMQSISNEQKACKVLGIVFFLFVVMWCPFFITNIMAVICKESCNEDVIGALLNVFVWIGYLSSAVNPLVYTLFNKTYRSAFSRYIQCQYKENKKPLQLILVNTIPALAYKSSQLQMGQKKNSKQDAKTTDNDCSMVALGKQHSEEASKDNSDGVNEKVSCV

SMILES: CC1SC(C)(C)C(=O)N1CCCCN1CCN(c2csc3cc(F)ccc23)CC1 (centres undefined)
- Ki [1]: 8 nM
- Change (Rattus norvegicus [2]): -34%
- Ki (D(4) dopamine receptor [3]): 5 nM
- Change (Rattus norvegicus [4]): -32%
- IC50 [5]: 17 nM
- Change (Rattus norvegicus [6]): 9%
- IC50 (D(4) dopamine receptor [7]): 29 nM
- IC50 [8]: 61 nM
- Social interaction (Rattus norvegicus [9]): 109.1
- Change (Rattus norvegicus [10]): 14%
- Total activity (Rattus norvegicus [11]): 96
- Change (Rattus norvegicus [12]): -57%
- Change (Rattus norvegicus [13]): 14%
- Total activity (Rattus norvegicus [14]): 144.3
- Change (Rattus norvegicus [15]): 1%
- IC50 [16]: 56 nM
- Social interaction (Rattus norvegicus [17]): 114
- Change (Rattus norvegicus [18]): 32%

SMILES: CN1CCN(C2=Nc3cc(Cl)ccc3Nc3ccccc32)CC1 [CLOZAPINE]
- Change (Rattus norvegicus [19]): 40%
- Change (Rattus norvegicus [20]): -18%
- Total activity (Rattus norvegicus [21]): 140.3
- Social interaction (Rattus norvegicus [22]): 151.3
- Total activity (Rattus norvegicus [23]): 146.3
- Activity [24]: 33%
- Change (Rattus norvegicus [12]): -79%
- Social interaction (Rattus norvegicus [25]): 123.3
- Change (Rattus norvegicus [26]): 14%
- Change (Rattus norvegicus [27]): -15%
- Change (Rattus norvegicus [18]): 37%

SMILES: CC1SC2(CCCC2)C(=O)N1CCCCN1CCN(c2csc3cc(F)ccc23)CC1 (centres undefined)
- Ki [1]: 4 nM
- Activity (Rattus norvegicus [28]): 20%
- Change (Rattus norvegicus [29]): -12%
- Change (Rattus norvegicus [2]): -27%
- Change (Rattus norvegicus [20]): -36%
- Activity (Rattus norvegicus [30]): 50%
- Ki (D(4) dopamine receptor [3]): 117 nM
- Change (Rattus norvegicus [4]): 18%
- IC50 [5]: 8 nM
- Total activity (Rattus norvegicus [21]): 82.1
- Change (Rattus norvegicus [6]): 14%
- IC50 (D(4) dopamine receptor [7]): 713 nM
- IC50 (D(2) dopamine receptor): 954 nM
- IC50 [8]: 189 nM
- Social interaction (Rattus norvegicus [9]): 106.5
- Change (Rattus norvegicus [10]): 13%
- Total activity (Rattus norvegicus [11]): 106.3
- Change (Rattus norvegicus [12]): -39%
- Social interaction (Rattus norvegicus [25]): 97.3
- Total activity (Rattus norvegicus [14]): 146
- Change (Rattus norvegicus [26]): 5%
- Change (Rattus norvegicus [15]): 1%
- IC50 [16]: 131 nM
- Social interaction (Rattus norvegicus [17]): 108
- Change (Rattus norvegicus [18]): -8%

SMILES: CC1SC2(CCCC2)C(=O)N1CCCCN1CCN(c2nsc3ccccc23)CC1 (centres undefined)
- Activity (Rattus norvegicus [31]): 10%
- IC50 (D(2) dopamine receptor): 154 nM
- IC50 [8]: 3 nM
- Activity (Rattus norvegicus [32]): 100%
- IC50 [16]: 9.6 nM

SMILES: O=C(CCCN1CCC(O)(c2ccc(Cl)cc2)CC1)c1ccc(F)cc1 [HALOPERIDOL]
- Social interaction (Rattus norvegicus [33]): 77.2
- Change (Rattus norvegicus [34]): -11%
- Change (Rattus norvegicus [35]): -19%
- Change (Rattus norvegicus [36]): -35%
- Total activity (Rattus norvegicus [37]): 112.3
- ED50 [38]: 0.6 mg/kg
- Change (Rattus norvegicus [39]): -22%
- Social interaction (Rattus norvegicus [40]): 65.6
- Change (Rattus norvegicus [41]): -32%
- Change (Rattus norvegicus [42]): -30%
